{"source": "patent US20240115654A1", "about": "“INTRAVENOUS ADMINISTRATION OF ENGINEERED ANTIMICROBIAL AMPHIPHILIC PEPTIDES” (priority 2021, published 2024)", "assay": "clinical", "conditions": "human, plasma, iv, Plasma Concentration by Nominal Time from Start of Infusion; for level at 0.5 h: 0.50 h", "key": {"[1]": {"conditions": "0.05 mg/kg, Cohort 1, 0.05 mg/kg IV 1-hr infusion, individual subject"}, "[2]": {"conditions": "0.05 mg/kg, Cohort 1, 0.05 mg/kg IV 1 hr infusion, individual subjects"}, "[3]": {"conditions": "0.05 mg/kg, Mean, Cohort 1, 0.05 mg/kg IV 1-hr infusion, cohort mean"}, "[4]": {"conditions": "0.05 mg/kg, Mean, Cohort 1, 0.05 mg/kg IV 1 hr infusion, cohort mean N 6"}, "[5]": {"conditions": "0.5 mg/kg, Mean, Cohort 4, 0.5 mg/kg IV 2-hr infusion, cohort mean"}, "[6]": {"conditions": "0.5 mg/kg, Mean, Cohort 4, 0.5 mg/kg IV, infusion 2 hours, cohort mean N 6"}, "[7]": {"conditions": "1 mg/kg, Mean, Cohort 5, 1 mg/kg IV 4-hr infusion, cohort mean"}}, "note": "Peptide text beside a SMILES is read from it.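 Further: phase 1 study in human subjects given one IV dose of the peptide, enrolled in sequential ascending-dose cohorts and randomized to peptide or placebo.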", "procedure": "Administration was a single 1-hour infusion.\nSubjects were enrolled in sequential cohorts of peptide ascending dose levels and randomly assigned to receive a single IV administration of either peptide or placebo over 1 to 2 hours. […] In addition, the infusion volume was adjusted for Cohort 4 to maintain drug concentrations in line with Cohort 2\nBlood samples for PK assessment were collected at pre-dose, at the midpoint of infusion, within 1 minute after the end-of-infusion and at 0.5, 1, 2, 4, 6, 8, 12, 20, 24, 36 and 48 hours after the end-of-infusion.\nThe pharmaceutical composition was stored at 2° C. to 8° C. for up to 14 days and then 15° C. to 25° C. for up to 48 hours for dosing.\nSubjects were enrolled in sequential cohorts of peptide ascending dose levels and randomly assigned to receive a single IV administration of either peptide or placebo over 1 to 2 hours."}
{"compound": "CC(C)[C@H](NC(=O)[C@H](Cc1c[nH]c2ccccc12)NC(=O)[C@H](CCCNC(=N)N)NC(=O)[C@H](CCCNC(=N)N)NC(=O)[C@@H](NC(=O)[C@@H](NC(=O)[C@H](CCCNC(=N)N)NC(=O)[C@@H](NC(=O)[C@@H](NC(=O)[C@H](CCCNC(=N)N)NC(=O)[C@H](CCCNC(=N)N)NC(=O)[C@H](Cc1c[nH]c2ccccc12)NC(=O)[C@@H](NC(=O)[C@H](CCCNC(=N)N)NC(=O)[C@H](CCCNC(=N)N)NC(=O)[C@@H](NC(=O)[C@H](CCCNC(=N)N)NC(=O)[C@H](CCCNC(=N)N)NC(=O)[C@@H](NC(=O)[C@H](Cc1c[nH]c2ccccc12)NC(=O)[C@H](CCCNC(=N)N)NC(=O)[C@@H](N)CCCNC(=N)N)C(C)C)C(C)C)C(C)C)C(C)C)C(C)C)C(C)C)C(C)C)C(=O)N[C@@H](CCCNC(=N)N)C(=O)N[C@@H](CCCNC(=N)N)C(N)=O", "note": "[SEQ ID NO: 1] (H-RRWVRRVRRVWRRVVRVVRRWVRR-NH2)", "values": [{"measurement": "level at 0 h", "setting": "[1]", "value": 6.03, "unit": "ng/mL"}, {"measurement": "level at 0.5 h", "setting": "[1]", "value": 166, "unit": "ng/mL"}, {"measurement": "level at 21 h", "setting": "[1]", "value": 12.6, "unit": "ng/mL"}, {"measurement": "level at 37 h", "setting": "[1]", "value": 6.59, "unit": "ng/mL"}, {"measurement": "level at 0 h", "setting": "[2]", "value": 6.03, "unit": "ng/mL"}, {"measurement": "level at 0.5 h", "setting": "[2]", "value": 166, "unit": "ng/mL"}, {"measurement": "level at 21 h", "setting": "[2]", "value": 12.6, "unit": "ng/mL"}, {"measurement": "level at 37 h", "setting": "[2]", "value": 6.59, "unit": "ng/mL"}, {"measurement": "level at 0 h", "setting": "[3]", "value": 1.01, "unit": "ng/mL"}, {"measurement": "level at 0.5 h", "setting": "[3]", "value": 189, "unit": "ng/mL"}, {"measurement": "level at 1 h", "setting": "[3]", "value": 256, "unit": "ng/mL"}, {"measurement": "level at 2 h", "setting": "[3]", "value": 108, "unit": "ng/mL"}, {"measurement": "level at 3 h", "setting": "[3]", "value": 96.4, "unit": "ng/mL"}, {"measurement": "level at 5 h", "setting": "[3]", "value": 79.5, "unit": "ng/mL"}, {"measurement": "level at 7 h", "setting": "[3]", "value": 62.5, "unit": "ng/mL"}, {"measurement": "level at 9 h", "setting": "[3]", "value": 56.9, "unit": "ng/mL"}, {"measurement": "level at 13 h", "setting": "[3]", "value": 31.5, "unit": "ng/mL"}, {"measurement": "level at 21 h", "setting": "[3]", "value": 15.4, "unit": "ng/mL"}, {"measurement": "level at 25 h", "setting": "[3]", "value": 14.8, "unit": "ng/mL"}, {"measurement": "level at 37 h", "setting": "[3]", "value": 1.1, "unit": "ng/mL"}, {"measurement": "level at […]", "setting": "[3]", "value": 134, "unit": "ng/mL"}, {"measurement": "level at 0 h", "setting": "[4]", "value": 1.01, "unit": "ng/mL"}, {"measurement": "level at 0.5 h", "setting": "[4]", "value": 189, "unit": "ng/mL"}, {"measurement": "level at 1 h", "setting": "[4]", "value": 256, "unit": "ng/mL"}, {"measurement": "level at 2 h", "setting": "[4]", "value": 108, "unit": "ng/mL"}, {"measurement": "level at 3 h", "setting": "[4]", "value": 96.4, "unit": "ng/mL"}, {"measurement": "level at 5 h", "setting": "[4]", "value": 79.5, "unit": "ng/mL"}, {"measurement": "level at 7 h", "setting": "[4]", "value": 62.5, "unit": "ng/mL"}, {"measurement": "level at 9 h", "setting": "[4]", "value": 56.9, "unit": "ng/mL"}, {"measurement": "level at 13 h", "setting": "[4]", "value": 31.5, "unit": "ng/mL"}, {"measurement": "level at 21 h", "setting": "[4]", "value": 15.4, "unit": "ng/mL"}, {"measurement": "level at 25 h", "setting": "[4]", "value": 14.8, "unit": "ng/mL"}, {"measurement": "level at 37 h", "setting": "[4]", "value": 1.1, "unit": "ng/mL"}, {"measurement": "level at […]", "setting": "[4]", "value": 134, "unit": "ng/mL"}, {"measurement": "level at 50 h", "setting": "0.5 mg/kg, Cohort 4, 0.5 mg/kg IV 2-hr infusion, individual subject", "value": 45.9, "unit": "ng/mL"}, {"measurement": "level at 1 h", "setting": "[5]", "value": 1210, "unit": "ng/mL"}, {"measurement": "level at 2 h", "setting": "[5]", "value": 1830, "unit": "ng/mL"}, {"measurement": "level at 3 h", "setting": "[5]", "value": 616, "unit": "ng/mL"}, {"measurement": "level at 4 h", "setting": "[5]", "value": 451, "unit": "ng/mL"}, {"measurement": "level at 6 h", "setting": "[5]", "value": 330, "unit": "ng/mL"}, {"measurement": "level at 8 h", "setting": "[5]", "value": 249, "unit": "ng/mL"}, {"measurement": "level at 10 h", "setting": "[5]", "value": 219, "unit": "ng/mL"}, {"measurement": "level at 14 h", "setting": "[5]", "value": 134, "unit": "ng/mL"}, {"measurement": "level at 22 h", "setting": "[5]", "value": 76.3, "unit": "ng/mL"}, {"measurement": "level at 26 h", "setting": "[5]", "value": 72.5, "unit": "ng/mL"}, {"measurement": "level at 38 h", "setting": "[5]", "value": 41.2, "unit": "ng/mL"}, {"measurement": "level at 50 h", "setting": "[5]", "value": 25.7, "unit": "ng/mL"}, {"measurement": "level at […]", "setting": "[5]", "value": 877, "unit": "ng/mL"}, {"measurement": "level at 1 h", "setting": "[6]", "value": 1210, "unit": "ng/mL"}, {"measurement": "level at 2 h", "setting": "[6]", "value": 1830, "unit": "ng/mL"}, {"measurement": "level at 3 h", "setting": "[6]", "value": 616, "unit": "ng/mL"}, {"measurement": "level at 4 h", "setting": "[6]", "value": 451, "unit": "ng/mL"}, {"measurement": "level at 6 h", "setting": "[6]", "value": 330, "unit": "ng/mL"}, {"measurement": "level at 8 h", "setting": "[6]", "value": 249, "unit": "ng/mL"}, {"measurement": "level at 10 h", "setting": "[6]", "value": 219, "unit": "ng/mL"}, {"measurement": "level at 14 h", "setting": "[6]", "value": 134, "unit": "ng/mL"}, {"measurement": "level at 22 h", "setting": "[6]", "value": 76.3, "unit": "ng/mL"}, {"measurement": "level at 26 h", "setting": "[6]", "value": 72.5, "unit": "ng/mL"}, {"measurement": "level at 38 h", "setting": "[6]", "value": 41.2, "unit": "ng/mL"}, {"measurement": "level at 50 h", "setting": "[6]", "value": 25.7, "unit": "ng/mL"}, {"measurement": "level at […]", "setting": "[6]", "value": 877, "unit": "ng/mL"}, {"measurement": "level at 2 h", "setting": "[7]", "value": 2040, "unit": "ng/mL"}, {"measurement": "level at 4 h", "setting": "[7]", "value": 2650, "unit": "ng/mL"}, {"measurement": "level at 5 h", "setting": "[7]", "value": 1350, "unit": "ng/mL"}, {"measurement": "level at 6 h", "setting": "[7]", "value": 1130, "unit": "ng/mL"}, {"measurement": "level at 8 h", "setting": "[7]", "value": 803, "unit": "ng/mL"}, {"measurement": "level at 10 h", "setting": "[7]", "value": 604, "unit": "ng/mL"}, {"measurement": "level at 12 h", "setting": "1 mg/kg, Mean, Cohort 5, 1 mg/kg IV 4-hr infusion, 12 h, cohort mean", "value": 487, "unit": "ng/mL"}, {"measurement": "level at 16 h", "setting": "1 mg/kg, Mean, Cohort 5, 1 mg/kg IV 4-hr infusion, 16 h, cohort mean", "value": 287, "unit": "ng/mL"}, {"measurement": "level at 24 h", "setting": "1 mg/kg, Mean, Cohort 5, 1 mg/kg IV 4-hr infusion, 24 h, cohort mean", "value": 167, "unit": "ng/mL"}, {"measurement": "level at 28 h", "setting": "1 mg/kg, Mean, Cohort 5, 1 mg/kg IV 4-hr infusion, 28 h, cohort mean", "value": 180, "unit": "ng/mL"}, {"measurement": "level at 40 h", "setting": "1 mg/kg, Mean, Cohort 5, 1 mg/kg IV 4-hr infusion, 40 h, cohort mean", "value": 98.7, "unit": "ng/mL"}, {"measurement": "level at 52 h", "setting": "1 mg/kg, Mean, Cohort 5, 1 mg/kg IV 4-hr infusion, 52 h, cohort mean", "value": 99.6, "unit": "ng/mL"}, {"measurement": "level at […]", "setting": "[7]", "value": 1810, "unit": "ng/mL"}]}
